Experimental data: PubChem BioAssay AID1963825 (Molecular Pharmacology Branch, DTP, NCI, 2024)
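Note: luminescence signal used as a surrogate for viable cells; spheroids exposed to drugs for seven days before readout.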

Assay: Anticancer human tumor 997537-175-T-J1-PDC patient-derived colon adenocarcinoma cell line growth inhibition [POLQ]
Conditions: 997537-175-T-J1-PDC complex spheroid viability, combination with POLQ inhibitors; second compound 0.0316 µM; first compound 3.16 µM; hits give low values
Method in brief: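 Three-cell-type spheroids modelling solid tumor plus stroma served as the readout system; POL inhibitors were tested individually and in combination, concentration ranges set by clinical Cmax where known.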
`O=c1[nH]cc(F)c(=O)[nH]1` + Cc1cccc(N(C)C(=O)C2C(O)CCN2c2nc(C)cc(C(F)(F)F)c2C#N)c1 showed a viability, T/C of 94.6%. `CNCc1ccc(-c2[nH]c3cc(F)cc4c3c2CCNC4=O)cc1` + COC1C(OC(N)=O)C(O)C(Oc2ccc3c(O)c(NC(=O)c4ccc(O)c(CC=C(C)C)c4)c(=O)oc3c2C)OC1(C)C showed a viability, T/C of 101%. For `C=CC(=O)N1CCN(c2nc(=O)n(-c3c(C)ccnc3C(C)C)c3nc(-c4c(O)cccc4F)c(F)cc23)C(C)C1` (configuration not stated) + Cc1cccc(N(C)C(=O)C2C(O)CCN2c2nc(C)cc(C(F)(F)F)c2C#N)c1, the viability, T/C was 96.3%.

Same assay, conditions: 997537-175-T-J1-PDC complex spheroid viability, combination with POLQ inhibitors; second compound 0.0316 µM; first compound 10 µM; hits give low values
Work on `O=c1[nH]cc(F)c(=O)[nH]1` + Cc1cccc(N(C)C(=O)C2C(O)CCN2c2nc(C)cc(C(F)(F)F)c2C#N)c1 yielded a viability, T/C of 79.7%. With `CNCc1ccc(-c2[nH]c3cc(F)cc4c3c2CCNC4=O)cc1` + COC1C(OC(N)=O)C(O)C(Oc2ccc3c(O)c(NC(=O)c4ccc(O)c(CC=C(C)C)c4)c(=O)oc3c2C)OC1(C)C the viability, T/C was 104%. Compound `C=CC(=O)N1CCN(c2nc(=O)n(-c3c(C)ccnc3C(C)C)c3nc(-c4c(O)cccc4F)c(F)cc23)C(C)C1` (configuration not stated) + Cc1cccc(N(C)C(=O)C2C(O)CCN2c2nc(C)cc(C(F)(F)F)c2C#N)c1 has a viability, T/C of 103%.

Same assay, conditions: 997537-175-T-J1-PDC complex spheroid viability, combination with POLQ inhibitors; second compound 0.1 µM; first compound 0.00316 µM; hits give low values
For `COc1cccc(OCCCN)c1-c1cc(Nc2cnc(C#N)cn2)n[nH]1` + Cc1cccc(N(C)C(=O)C2C(O)CCN2c2nc(C)cc(C(F)(F)F)c2C#N)c1, the viability, T/C was 111%.

Same assay, conditions: 997537-175-T-J1-PDC complex spheroid viability, combination with POLQ inhibitors; second compound 0.1 µM; first compound 0.01 µM; hits give low values
`COc1cccc(OCCCN)c1-c1cc(Nc2cnc(C#N)cn2)n[nH]1` + Cc1cccc(N(C)C(=O)C2C(O)CCN2c2nc(C)cc(C(F)(F)F)c2C#N)c1 gave a viability, T/C of 107%.

Same assay, conditions: 997537-175-T-J1-PDC complex spheroid viability, combination with POLQ inhibitors; second compound 0.1 µM; first compound 0.0316 µM; hits give low values
In the case of `O=c1[nH]cc(F)c(=O)[nH]1` + Cc1cccc(N(C)C(=O)C2C(O)CCN2c2nc(C)cc(C(F)(F)F)c2C#N)c1, the viability, T/C is reported as 95.8%. For `CNCc1ccc(-c2[nH]c3cc(F)cc4c3c2CCNC4=O)cc1` + COC1C(OC(N)=O)C(O)C(Oc2ccc3c(O)c(NC(=O)c4ccc(O)c(CC=C(C)C)c4)c(=O)oc3c2C)OC1(C)C, the viability, T/C was 102%. `COc1cccc(OCCCN)c1-c1cc(Nc2cnc(C#N)cn2)n[nH]1` + Cc1cccc(N(C)C(=O)C2C(O)CCN2c2nc(C)cc(C(F)(F)F)c2C#N)c1 showed a viability, T/C of 50.1%. `C=CC(=O)N1CCN(c2nc(=O)n(-c3c(C)ccnc3C(C)C)c3nc(-c4c(O)cccc4F)c(F)cc23)C(C)C1` (configuration not stated) + Cc1cccc(N(C)C(=O)C2C(O)CCN2c2nc(C)cc(C(F)(F)F)c2C#N)c1 gave a viability, T/C of 104%.

Same assay, conditions: 997537-175-T-J1-PDC complex spheroid viability, combination with POLQ inhibitors; second compound 0.1 µM; first compound 0.1 µM; hits give low values
Work on `O=c1[nH]cc(F)c(=O)[nH]1` + Cc1cccc(N(C)C(=O)C2C(O)CCN2c2nc(C)cc(C(F)(F)F)c2C#N)c1 yielded a viability, T/C of 87.7%. For `CNCc1ccc(-c2[nH]c3cc(F)cc4c3c2CCNC4=O)cc1` + COC1C(OC(N)=O)C(O)C(Oc2ccc3c(O)c(NC(=O)c4ccc(O)c(CC=C(C)C)c4)c(=O)oc3c2C)OC1(C)C, the viability, T/C was 97%. Work on `COc1cccc(OCCCN)c1-c1cc(Nc2cnc(C#N)cn2)n[nH]1` + Cc1cccc(N(C)C(=O)C2C(O)CCN2c2nc(C)cc(C(F)(F)F)c2C#N)c1 yielded a viability, T/C of 73%. In the case of `C=CC(=O)N1CCN(c2nc(=O)n(-c3c(C)ccnc3C(C)C)c3nc(-c4c(O)cccc4F)c(F)cc23)C(C)C1` (configuration not stated) + Cc1cccc(N(C)C(=O)C2C(O)CCN2c2nc(C)cc(C(F)(F)F)c2C#N)c1, the viability, T/C is reported as 114%.

Same assay, conditions: 997537-175-T-J1-PDC complex spheroid viability, combination with POLQ inhibitors; second compound 0.1 µM; first compound 0.316 µM; hits give low values
Compound `O=c1[nH]cc(F)c(=O)[nH]1` + Cc1cccc(N(C)C(=O)C2C(O)CCN2c2nc(C)cc(C(F)(F)F)c2C#N)c1 has a viability, T/C of 103%. `CNCc1ccc(-c2[nH]c3cc(F)cc4c3c2CCNC4=O)cc1` + COC1C(OC(N)=O)C(O)C(Oc2ccc3c(O)c(NC(=O)c4ccc(O)c(CC=C(C)C)c4)c(=O)oc3c2C)OC1(C)C gave a viability, T/C of 80.2%. Work on `COc1cccc(OCCCN)c1-c1cc(Nc2cnc(C#N)cn2)n[nH]1` + Cc1cccc(N(C)C(=O)C2C(O)CCN2c2nc(C)cc(C(F)(F)F)c2C#N)c1 yielded a viability, T/C of 32.8%. `C=CC(=O)N1CCN(c2nc(=O)n(-c3c(C)ccnc3C(C)C)c3nc(-c4c(O)cccc4F)c(F)cc23)C(C)C1` (configuration not stated) + Cc1cccc(N(C)C(=O)C2C(O)CCN2c2nc(C)cc(C(F)(F)F)c2C#N)c1 showed a viability, T/C of 92.2%.

Same assay, conditions: 997537-175-T-J1-PDC complex spheroid viability, combination with POLQ inhibitors; second compound 0.1 µM; first compound 1 µM; hits give low values
Work on `O=c1[nH]cc(F)c(=O)[nH]1` + Cc1cccc(N(C)C(=O)C2C(O)CCN2c2nc(C)cc(C(F)(F)F)c2C#N)c1 yielded a viability, T/C of 108%. `CNCc1ccc(-c2[nH]c3cc(F)cc4c3c2CCNC4=O)cc1` + COC1C(OC(N)=O)C(O)C(Oc2ccc3c(O)c(NC(=O)c4ccc(O)c(CC=C(C)C)c4)c(=O)oc3c2C)OC1(C)C showed a viability, T/C of 97.9%. For `COc1cccc(OCCCN)c1-c1cc(Nc2cnc(C#N)cn2)n[nH]1` + Cc1cccc(N(C)C(=O)C2C(O)CCN2c2nc(C)cc(C(F)(F)F)c2C#N)c1, the viability, T/C was 31.2%. `C=CC(=O)N1CCN(c2nc(=O)n(-c3c(C)ccnc3C(C)C)c3nc(-c4c(O)cccc4F)c(F)cc23)C(C)C1` (configuration not stated) + Cc1cccc(N(C)C(=O)C2C(O)CCN2c2nc(C)cc(C(F)(F)F)c2C#N)c1 gave a viability, T/C of 106%.

Same assay, conditions: 997537-175-T-J1-PDC complex spheroid viability, combination with POLQ inhibitors; second compound 0.1 µM; first compound 3.16 µM; hits give low values
For `O=c1[nH]cc(F)c(=O)[nH]1` + Cc1cccc(N(C)C(=O)C2C(O)CCN2c2nc(C)cc(C(F)(F)F)c2C#N)c1, the viability, T/C was 103%. `CNCc1ccc(-c2[nH]c3cc(F)cc4c3c2CCNC4=O)cc1` + COC1C(OC(N)=O)C(O)C(Oc2ccc3c(O)c(NC(=O)c4ccc(O)c(CC=C(C)C)c4)c(=O)oc3c2C)OC1(C)C gave a viability, T/C of 103%. `C=CC(=O)N1CCN(c2nc(=O)n(-c3c(C)ccnc3C(C)C)c3nc(-c4c(O)cccc4F)c(F)cc23)C(C)C1` (configuration not stated) + Cc1cccc(N(C)C(=O)C2C(O)CCN2c2nc(C)cc(C(F)(F)F)c2C#N)c1 gave a viability, T/C of 96%.

Same assay, conditions: 997537-175-T-J1-PDC complex spheroid viability, combination with POLQ inhibitors; second compound 0.1 µM; first compound 10 µM; hits give low values
Work on `O=c1[nH]cc(F)c(=O)[nH]1` + Cc1cccc(N(C)C(=O)C2C(O)CCN2c2nc(C)cc(C(F)(F)F)c2C#N)c1 yielded a viability, T/C of 98.4%. In the case of `CNCc1ccc(-c2[nH]c3cc(F)cc4c3c2CCNC4=O)cc1` + COC1C(OC(N)=O)C(O)C(Oc2ccc3c(O)c(NC(=O)c4ccc(O)c(CC=C(C)C)c4)c(=O)oc3c2C)OC1(C)C, the viability, T/C is reported as 106%. Compound `C=CC(=O)N1CCN(c2nc(=O)n(-c3c(C)ccnc3C(C)C)c3nc(-c4c(O)cccc4F)c(F)cc23)C(C)C1` (configuration not stated) + Cc1cccc(N(C)C(=O)C2C(O)CCN2c2nc(C)cc(C(F)(F)F)c2C#N)c1 has a viability, T/C of 94.3%.

Same assay, conditions: 997537-175-T-J1-PDC complex spheroid viability, combination with POLQ inhibitors; second compound 0.316 µM; first compound 0.00316 µM; hits give low values
In the case of `COc1cccc(OCCCN)c1-c1cc(Nc2cnc(C#N)cn2)n[nH]1` + Cc1cccc(N(C)C(=O)C2C(O)CCN2c2nc(C)cc(C(F)(F)F)c2C#N)c1, the viability, T/C is reported as 100%.

Same assay, conditions: 997537-175-T-J1-PDC complex spheroid viability, combination with POLQ inhibitors; second compound 0.316 µM; first compound 0.01 µM; hits give low values
`COc1cccc(OCCCN)c1-c1cc(Nc2cnc(C#N)cn2)n[nH]1` + Cc1cccc(N(C)C(=O)C2C(O)CCN2c2nc(C)cc(C(F)(F)F)c2C#N)c1 gave a viability, T/C of 79.8%.

Same assay, conditions: 997537-175-T-J1-PDC complex spheroid viability, combination with POLQ inhibitors; second compound 0.316 µM; first compound 0.0316 µM; hits give low values
Work on `O=c1[nH]cc(F)c(=O)[nH]1` + Cc1cccc(N(C)C(=O)C2C(O)CCN2c2nc(C)cc(C(F)(F)F)c2C#N)c1 yielded a viability, T/C of 95%. For `CNCc1ccc(-c2[nH]c3cc(F)cc4c3c2CCNC4=O)cc1` + COC1C(OC(N)=O)C(O)C(Oc2ccc3c(O)c(NC(=O)c4ccc(O)c(CC=C(C)C)c4)c(=O)oc3c2C)OC1(C)C, the viability, T/C was 100%. For `COc1cccc(OCCCN)c1-c1cc(Nc2cnc(C#N)cn2)n[nH]1` + Cc1cccc(N(C)C(=O)C2C(O)CCN2c2nc(C)cc(C(F)(F)F)c2C#N)c1, the viability, T/C was 70.1%. With `C=CC(=O)N1CCN(c2nc(=O)n(-c3c(C)ccnc3C(C)C)c3nc(-c4c(O)cccc4F)c(F)cc23)C(C)C1` (configuration not stated) + Cc1cccc(N(C)C(=O)C2C(O)CCN2c2nc(C)cc(C(F)(F)F)c2C#N)c1 the viability, T/C was 101%.

Same assay, conditions: 997537-175-T-J1-PDC complex spheroid viability, combination with POLQ inhibitors; second compound 0.316 µM; first compound 0.1 µM; hits give low values
Compound `O=c1[nH]cc(F)c(=O)[nH]1` + Cc1cccc(N(C)C(=O)C2C(O)CCN2c2nc(C)cc(C(F)(F)F)c2C#N)c1 has a viability, T/C of 96%. In the case of `CNCc1ccc(-c2[nH]c3cc(F)cc4c3c2CCNC4=O)cc1` + COC1C(OC(N)=O)C(O)C(Oc2ccc3c(O)c(NC(=O)c4ccc(O)c(CC=C(C)C)c4)c(=O)oc3c2C)OC1(C)C, the viability, T/C is reported as 101%. Work on `COc1cccc(OCCCN)c1-c1cc(Nc2cnc(C#N)cn2)n[nH]1` + Cc1cccc(N(C)C(=O)C2C(O)CCN2c2nc(C)cc(C(F)(F)F)c2C#N)c1 yielded a viability, T/C of 45.3%. For `C=CC(=O)N1CCN(c2nc(=O)n(-c3c(C)ccnc3C(C)C)c3nc(-c4c(O)cccc4F)c(F)cc23)C(C)C1` (configuration not stated) + Cc1cccc(N(C)C(=O)C2C(O)CCN2c2nc(C)cc(C(F)(F)F)c2C#N)c1, the viability, T/C was 113%.

Same assay, conditions: 997537-175-T-J1-PDC complex spheroid viability, combination with POLQ inhibitors; second compound 0.316 µM; first compound 0.316 µM; hits give low values
For `O=c1[nH]cc(F)c(=O)[nH]1` + Cc1cccc(N(C)C(=O)C2C(O)CCN2c2nc(C)cc(C(F)(F)F)c2C#N)c1, the viability, T/C was 112%. Work on `CNCc1ccc(-c2[nH]c3cc(F)cc4c3c2CCNC4=O)cc1` + COC1C(OC(N)=O)C(O)C(Oc2ccc3c(O)c(NC(=O)c4ccc(O)c(CC=C(C)C)c4)c(=O)oc3c2C)OC1(C)C yielded a viability, T/C of 93.6%.
